The text below walks through data of publication PMC7443514 (Bioorganic & medicinal chemistry, 2020).

Assay [1] deals with T1, SARM1 TIR domain (bacterial lysate) (Homo sapiens, UniProt Q6SZW1).
T1 sequence (Q6SZW1 561-724): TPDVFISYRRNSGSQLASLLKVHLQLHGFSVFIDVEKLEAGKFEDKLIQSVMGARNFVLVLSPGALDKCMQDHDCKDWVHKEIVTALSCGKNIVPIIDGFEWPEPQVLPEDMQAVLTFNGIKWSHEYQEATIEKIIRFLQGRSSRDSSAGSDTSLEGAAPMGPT
The class given is biochemical. The following applies: ENAD 0-400 μM; for Inhibition Mechanism: bacterially expressed TIR domain lysate.

The test system of assay [2] is SARM1. To be noted: substrate analog; cited from earlier work.
Assay [3] deals with T1, SARM1 TIR domain (bacterial lysate). To be noted: cited from earlier work.
In assay [4] the target is T2, purified SARM1 TIR domain (Homo sapiens, UniProt Q6SZW1).
T2 sequence (Q6SZW1 561-724): T1 sequence (Q6SZW1 561-724)
As to the kind of experiment: Dose response, ENAD assay, purified TIR domain. The class given is biochemical. To be noted: purified TIR domain (20 μM), 500 μM ENAD.

Like-named read-outs stand apart in the source and are kept apart here.

Regarding `C[C@H]1c2cccc(O)c2C(=O)C2=C(O)[C@]3(O)C(=O)C(C(N)=O)=C(O)[C@@H](N(C)C)[C@@H]3[C@@H](O)[C@@H]21.Cl` [Doxycycline Hydrochloride, Doxycycline hydrochloride], in assay [1], the “Inhibition Mechanism” value is “Noncompetitive”. Usually Km stands for the concentration of substrate that gives half-maximal velocity. By kcat is commonly meant the number of substrate molecules converted per active site and unit of time at saturation. `NC(=O)c1ccc[n+]([C@@H]2O[C@H](COP(=O)([O-])OP(=O)(O)OC[C@H]3O[C@@H](n4cnc5c4ncn4ccnc54)[C@H](O)[C@@H]3O)[C@@H](O)[C@H]2O)c1` [ENAD, Nicotinamide 1,N^6-ethenoadenine dinucleotide]: in assay [2], the Km was 35 ± 15 µM and the kcat is 0.05 ± 0.04 s⁻¹.

Turning to `NC(=O)N/N=C/c1ccc([N+](=O)[O-])o1` [Nitroflurazone], the “Inhibition Mechanism” value in assay [1] is reported as “Noncompetitive”. On to `Cl.Nc1ccc(/N=N/c2ccccc2)c(N)n1` [Phenazopyridine Hydrochloride, Phenazopyridine hydrochloride], for which the “Inhibition Mechanism” value in assay [1] is “Competitive”. As for `[O-][n+]1ccccc1[S-].[O-][n+]1ccccc1[S-].[Zn+2]` [Pyrithone Zinc, Pyrithone zinc], the “Inhibition Mechanism” value in assay [1] was “Noncompetitive”.

As a reminder, the Ki is the dissociation constant of the complex between target and ligand, obtained from inhibition or displacement. As usually defined, the IC50 is the concentration that inhibits the measured activity by half. Higher therefore signals lower potency. Take `[Cl-].[Cl-].[Zn+2]` [Zinc Chloride, Zinc chloride]: the Inhibition Mechanism result was “noncompetitive” in assay [3] and “Noncompetitive” in assay [1]. Further, the Ki in assay [3] and in assay [1] (bacterially expressed TIR domain (300 nM) lysate) was 3.3 ± 0.1 µM throughout. In addition, in assay [4], it took 10 ± 1 µM to reach half-maximal inhibition (IC50).
